These results are taken from US10961236B2, “(S)-2-(1-cyclopropylethyl)-5-(4-methyl-2-((6-(2-oxopyrrolidin-1-yl)pyridin-2-yl)amino) thiazol-5-yl)-7-(methylsulfonyl)isoindolin-1-one as a phosphatidylinositol 3-kinase inhibitor” (AstraZeneca AB, priority 2016, dated 2021).

In general, IC50 refers to the point on the concentration scale where inhibition reaches its midpoint.

Common to all, as to type: biochemical
In assay [1] the target is recombinant human PI3Kδ (6-His(p110-p85α)) (Homo sapiens (Human), UniProt O00329). The assay is described as follows: Enzymatic activity assay for recombinant human PI3Kδ (ADP-Glo). Particulars: 0.6 nM PI3Kδ, 20 μM ATP, 80 μM DiC8-PIP2, ADP-Glo. On the procedure:
(§1) Enzymatic Activity Assay for Recombinant Human PI3K α, β, δ and γ.
(§2) The activity of recombinant human PI3Kγ ((aa144-1102)-6His) and PI3Kα, β, δ (6-His(p110-p85α)) was determined by measuring the ADP level after phosphorylation of DiC8-PIP2 using a commercially available ADP-Glo™ kit from Promega. The assay was carried out in white low volume 384 well plates in a final volume of 14 μl at R.T. The assay conditions contained the following: 50 mM Tris buffer pH 7.4, 2.1 mM DTT, 3 mM MgCl2, 0.05% CHAPS, 20 μM ATP, 80 μM DiC8-PIP2 and 1.2 nM PI3Kα, β, γ or 0.6 nM PI3Kδ. […] Routinely, inhibitors were pre-incubated with 3 μl of enzyme for 15 min prior to the addition of 2 μl substrate mixture for a further 60 min enzyme reaction. The phosphorylation was stopped with the addition of 3 μl ADP-Glo™ reagent (stop solution) followed by a 40 min incubation. Prior to detection 6 μl of ADP-Glo™ Kinase Detection Reagent was added and the plates were read in a micro plate reader using a Luminescence filter. All additions were followed by a short centrifugation step.

The target of assay [2] is recombinant human PI3Kγ ((aa144-1102)-6His) (Homo sapiens (Human), UniProt P48736). In words: Enzymatic activity assay for recombinant human PI3Kγ (ADP-Glo). Particulars: 1.2 nM PI3Kγ, 20 μM ATP, 80 μM DiC8-PIP2, ADP-Glo. The procedure:
as §1, §2
(In general: In ADP-Glo the light output rises with the ADP produced.)

The target of assay [3] is recombinant human PI3Kα (6-His(p110-p85α)) (Homo sapiens (Human), UniProt P42336). The assay is described as follows: Enzymatic activity assay for recombinant human PI3Kα (ADP-Glo). To be noted: 1.2 nM PI3Kα, 20 μM ATP, 80 μM DiC8-PIP2, ADP-Glo. The procedure:
as §1
as §2, with “PI3Kδ. Potential inhibitors were made up in DMSO and then diluted in the assay to give a final concentration of not exceeding 1% (v/v) DMSO.” for “PI3Kδ.”

In assay [4] the target is recombinant human PI3Kβ (6-His(p110-p85α)) (Homo sapiens (Human), UniProt P42338). The assay is described as follows: Enzymatic activity assay for recombinant human PI3Kβ (ADP-Glo). Particulars: 1.2 nM PI3Kβ, 20 μM ATP, 80 μM DiC8-PIP2, ADP-Glo. On the procedure: as §1
as §2, with “PI3Kδ. Potential inhibitors were made up in DMSO and then diluted in the assay to give a final concentration of not exceeding 1% (v/v) DMSO.” for “PI3Kδ.”

Sequence of recombinant human PI3Kβ (6-His(p110-p85α)) (P42338 whole entry): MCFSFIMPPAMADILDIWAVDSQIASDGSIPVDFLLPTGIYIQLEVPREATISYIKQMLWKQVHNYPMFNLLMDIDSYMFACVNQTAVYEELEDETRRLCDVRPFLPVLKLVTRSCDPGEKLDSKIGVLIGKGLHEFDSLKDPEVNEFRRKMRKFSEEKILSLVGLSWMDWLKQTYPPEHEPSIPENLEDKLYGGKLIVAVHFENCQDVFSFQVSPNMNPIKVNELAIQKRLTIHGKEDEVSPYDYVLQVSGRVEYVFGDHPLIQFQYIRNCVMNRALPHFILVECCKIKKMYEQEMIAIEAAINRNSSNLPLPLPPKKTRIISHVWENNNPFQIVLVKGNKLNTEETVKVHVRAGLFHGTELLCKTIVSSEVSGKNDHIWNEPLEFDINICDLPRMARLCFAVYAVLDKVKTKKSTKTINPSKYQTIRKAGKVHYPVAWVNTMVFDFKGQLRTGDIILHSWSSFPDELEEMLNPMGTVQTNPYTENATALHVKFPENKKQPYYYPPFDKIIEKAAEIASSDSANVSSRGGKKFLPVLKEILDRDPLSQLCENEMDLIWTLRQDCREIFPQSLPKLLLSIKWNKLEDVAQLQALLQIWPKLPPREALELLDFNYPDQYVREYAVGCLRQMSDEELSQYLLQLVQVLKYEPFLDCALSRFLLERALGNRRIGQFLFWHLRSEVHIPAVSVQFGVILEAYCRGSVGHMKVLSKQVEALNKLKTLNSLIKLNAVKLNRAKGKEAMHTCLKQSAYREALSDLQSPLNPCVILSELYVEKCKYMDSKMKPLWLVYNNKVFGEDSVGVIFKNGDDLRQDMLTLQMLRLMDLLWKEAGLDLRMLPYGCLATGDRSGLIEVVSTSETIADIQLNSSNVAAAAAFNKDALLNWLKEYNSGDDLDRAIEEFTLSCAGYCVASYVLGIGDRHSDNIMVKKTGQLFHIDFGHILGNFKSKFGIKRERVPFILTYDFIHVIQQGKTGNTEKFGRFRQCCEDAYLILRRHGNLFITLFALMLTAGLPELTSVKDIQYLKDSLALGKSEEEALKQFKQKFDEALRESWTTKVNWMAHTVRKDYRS
Sequence of recombinant human PI3Kβ (6-His(p110-p85α)) (P27986 whole entry partner): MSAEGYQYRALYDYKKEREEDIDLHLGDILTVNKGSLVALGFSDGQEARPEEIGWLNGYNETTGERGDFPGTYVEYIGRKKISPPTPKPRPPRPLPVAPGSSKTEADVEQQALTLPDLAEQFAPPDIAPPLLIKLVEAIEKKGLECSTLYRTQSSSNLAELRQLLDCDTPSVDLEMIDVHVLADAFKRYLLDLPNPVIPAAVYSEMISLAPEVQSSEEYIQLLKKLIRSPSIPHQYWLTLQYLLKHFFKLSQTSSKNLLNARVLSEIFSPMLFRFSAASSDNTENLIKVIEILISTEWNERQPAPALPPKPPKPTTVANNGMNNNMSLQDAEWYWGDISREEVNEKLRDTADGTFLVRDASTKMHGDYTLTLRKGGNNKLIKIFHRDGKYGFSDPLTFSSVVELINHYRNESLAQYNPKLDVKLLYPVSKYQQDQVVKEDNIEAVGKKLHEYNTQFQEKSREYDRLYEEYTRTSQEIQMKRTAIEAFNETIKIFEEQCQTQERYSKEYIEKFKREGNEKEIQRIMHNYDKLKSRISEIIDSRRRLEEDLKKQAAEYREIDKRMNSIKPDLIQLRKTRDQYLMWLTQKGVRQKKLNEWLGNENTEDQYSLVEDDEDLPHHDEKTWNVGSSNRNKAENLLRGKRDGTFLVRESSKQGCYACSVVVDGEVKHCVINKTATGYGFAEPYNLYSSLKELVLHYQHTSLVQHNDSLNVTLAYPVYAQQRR
Sequence of recombinant human PI3Kα (6-His(p110-p85α)) (P42336 whole entry): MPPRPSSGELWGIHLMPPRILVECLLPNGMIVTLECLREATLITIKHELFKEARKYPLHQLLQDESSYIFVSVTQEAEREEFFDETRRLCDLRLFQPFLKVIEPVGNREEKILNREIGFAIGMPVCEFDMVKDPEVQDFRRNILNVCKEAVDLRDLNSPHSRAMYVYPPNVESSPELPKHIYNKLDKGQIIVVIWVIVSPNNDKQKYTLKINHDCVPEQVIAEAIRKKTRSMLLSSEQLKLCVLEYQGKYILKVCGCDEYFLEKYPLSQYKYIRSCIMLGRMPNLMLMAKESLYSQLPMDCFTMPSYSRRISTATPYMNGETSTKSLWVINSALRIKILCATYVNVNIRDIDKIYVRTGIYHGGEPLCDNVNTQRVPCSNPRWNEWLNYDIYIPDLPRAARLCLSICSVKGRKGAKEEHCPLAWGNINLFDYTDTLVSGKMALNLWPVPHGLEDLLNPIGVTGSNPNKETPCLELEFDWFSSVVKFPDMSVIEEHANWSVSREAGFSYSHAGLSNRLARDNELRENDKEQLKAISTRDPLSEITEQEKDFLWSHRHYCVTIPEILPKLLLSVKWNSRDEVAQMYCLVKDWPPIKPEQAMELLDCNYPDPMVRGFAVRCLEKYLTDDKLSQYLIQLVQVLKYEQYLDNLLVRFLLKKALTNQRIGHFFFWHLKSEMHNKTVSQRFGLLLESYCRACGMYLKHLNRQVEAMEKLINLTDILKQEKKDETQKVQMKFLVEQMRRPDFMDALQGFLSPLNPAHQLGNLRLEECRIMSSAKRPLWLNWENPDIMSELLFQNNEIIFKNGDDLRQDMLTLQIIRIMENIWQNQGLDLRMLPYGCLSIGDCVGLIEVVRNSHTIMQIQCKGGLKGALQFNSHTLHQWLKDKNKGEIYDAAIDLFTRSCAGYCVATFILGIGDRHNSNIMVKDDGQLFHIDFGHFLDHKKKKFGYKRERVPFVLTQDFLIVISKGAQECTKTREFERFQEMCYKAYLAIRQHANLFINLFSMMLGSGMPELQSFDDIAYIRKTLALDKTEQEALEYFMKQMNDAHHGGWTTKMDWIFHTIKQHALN
Sequence of recombinant human PI3Kα (6-His(p110-p85α)) (P27986 whole entry partner): as the sequence (P27986 whole entry partner) above
Sequence of recombinant human PI3Kδ (6-His(p110-p85α)) (O00329 whole entry): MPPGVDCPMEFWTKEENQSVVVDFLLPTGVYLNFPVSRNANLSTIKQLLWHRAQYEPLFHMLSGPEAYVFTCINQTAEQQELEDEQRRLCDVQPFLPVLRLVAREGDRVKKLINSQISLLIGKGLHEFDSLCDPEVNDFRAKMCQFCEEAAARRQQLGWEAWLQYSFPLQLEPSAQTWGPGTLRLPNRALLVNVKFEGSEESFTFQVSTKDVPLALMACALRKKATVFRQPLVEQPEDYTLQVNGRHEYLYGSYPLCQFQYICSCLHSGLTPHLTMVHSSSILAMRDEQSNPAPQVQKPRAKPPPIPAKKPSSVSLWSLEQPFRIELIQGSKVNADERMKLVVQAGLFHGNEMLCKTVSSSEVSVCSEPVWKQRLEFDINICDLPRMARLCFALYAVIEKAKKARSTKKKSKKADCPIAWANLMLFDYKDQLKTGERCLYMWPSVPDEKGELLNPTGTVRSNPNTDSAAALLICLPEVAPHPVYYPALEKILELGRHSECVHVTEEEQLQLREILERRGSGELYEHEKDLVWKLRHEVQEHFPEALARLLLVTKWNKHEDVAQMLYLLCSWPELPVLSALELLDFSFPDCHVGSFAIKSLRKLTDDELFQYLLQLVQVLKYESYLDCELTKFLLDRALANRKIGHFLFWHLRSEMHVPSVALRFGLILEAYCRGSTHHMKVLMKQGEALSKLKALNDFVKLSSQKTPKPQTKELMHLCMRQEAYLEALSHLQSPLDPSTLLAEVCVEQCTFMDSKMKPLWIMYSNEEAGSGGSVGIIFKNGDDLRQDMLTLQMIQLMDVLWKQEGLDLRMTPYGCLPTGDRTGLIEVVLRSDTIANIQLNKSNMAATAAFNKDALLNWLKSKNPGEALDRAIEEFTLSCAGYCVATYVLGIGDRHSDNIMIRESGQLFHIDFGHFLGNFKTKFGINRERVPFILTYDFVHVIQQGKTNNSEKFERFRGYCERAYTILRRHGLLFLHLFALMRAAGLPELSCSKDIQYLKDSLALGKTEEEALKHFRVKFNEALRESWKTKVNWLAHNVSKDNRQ
Sequence of recombinant human PI3Kδ (6-His(p110-p85α)) (P27986 whole entry partner): as the sequence (P27986 whole entry partner) above
Sequence of recombinant human PI3Kγ ((aa144-1102)-6His) (P48736 144-1102): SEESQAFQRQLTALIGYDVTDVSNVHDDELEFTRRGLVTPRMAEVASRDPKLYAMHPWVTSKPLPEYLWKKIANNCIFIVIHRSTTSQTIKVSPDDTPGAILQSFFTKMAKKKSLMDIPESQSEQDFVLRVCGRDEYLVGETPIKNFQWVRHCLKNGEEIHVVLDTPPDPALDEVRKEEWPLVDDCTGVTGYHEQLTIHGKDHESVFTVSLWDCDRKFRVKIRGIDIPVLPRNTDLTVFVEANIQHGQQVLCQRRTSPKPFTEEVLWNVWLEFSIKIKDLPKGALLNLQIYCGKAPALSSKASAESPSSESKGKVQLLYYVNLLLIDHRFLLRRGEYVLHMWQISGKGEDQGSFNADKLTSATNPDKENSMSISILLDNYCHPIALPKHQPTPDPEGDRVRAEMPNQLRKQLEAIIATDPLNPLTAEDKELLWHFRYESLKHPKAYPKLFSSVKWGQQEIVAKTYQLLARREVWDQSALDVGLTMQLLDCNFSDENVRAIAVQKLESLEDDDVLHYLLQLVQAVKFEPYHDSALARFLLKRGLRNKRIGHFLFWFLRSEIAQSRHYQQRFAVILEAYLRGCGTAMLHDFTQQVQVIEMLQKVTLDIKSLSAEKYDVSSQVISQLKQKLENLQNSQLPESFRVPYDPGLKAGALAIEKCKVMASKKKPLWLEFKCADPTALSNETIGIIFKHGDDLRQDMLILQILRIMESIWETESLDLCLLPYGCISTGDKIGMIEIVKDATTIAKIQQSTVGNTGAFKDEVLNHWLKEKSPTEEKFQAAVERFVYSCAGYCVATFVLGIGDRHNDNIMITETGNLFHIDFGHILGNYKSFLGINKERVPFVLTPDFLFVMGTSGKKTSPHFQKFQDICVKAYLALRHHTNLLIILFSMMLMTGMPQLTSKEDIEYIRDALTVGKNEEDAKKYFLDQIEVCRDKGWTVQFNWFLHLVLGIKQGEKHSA

`Cc1nc(Nc2cccc(N3CCOCC3=O)n2)sc1-c1cc2c(c(S(=O)(=O)NC(C)C)c1)C(=O)N([C@@H](C)C(F)(F)F)C2` [Example 28, 6-(4-Methyl-2-{[6-(3-oxomorpholin-4-yl)pyridin-2-yl]amino}-1,3-thiazol-5-yl)-3-oxo-N-(propan-2-yl)-2-[(2S)-1,1,1-trifluoropropan-2-yl]-2,3-dihydro-1H-isoindole-4-sulfonamide]: the IC50 in assay [1] amounted to 1.2 nM; in assay [2], 2.6 nM; in assay [3], 318 nM; in assay [4], 798 nM.

As to `Cc1nc(Nc2cccc(N3CCCOC3=O)n2)sc1-c1cc2c(c(S(=O)(=O)NC(C)C)c1)C(=O)N([C@@H](C)C(F)(F)F)C2` [Example 29, 6-(4-Methyl-2-{[6-(2-oxo-1,3-oxazinan-3-yl)pyridin-2-yl]amino}-1,3-thiazol-5-yl)-3-oxo-N-(propan-2-yl)-2-[(2S)-1,1,1-trifluoropropan-2-yl]-2,3-dihydro-1H-isoindole-4-sulfonamide], the IC50 in assay [1] amounted to 0.5 nM; in assay [2] it was 2.2 nM; in assay [3] it was 47 nM; in assay [4], 62 nM.

Turning to `Cc1nc(Nc2cccc(N3CCNC3=O)n2)sc1-c1cc2c(c(S(=O)(=O)NC(C)C)c1)C(=O)N([C@@H](C)C(F)(F)F)C2` [Example 30, 6-(4-Methyl-2-{[6-(2-oxoimidazolidin-1-yl)pyridin-2-yl]amino}-1,3-thiazol-5-yl)-3-oxo-N-(propan-2-yl)-2-[(2S)-1,1,1-trifluoropropan-2-yl]-2,3-dihydro-1H-isoindole-4-sulfonamide], the IC50 came to 0.5 nM in assay [1], 1.4 nM in assay [2], 74 nM in assay [3] and 722 nM in assay [4].

For the molecule `Cc1nc(Nc2cccc(N3CCCC3=O)n2)sc1-c1cc2c(c(S(=O)(=O)NC3COC3)c1)C(=O)N([C@@H](C)C1CC1)C2` [Example 32, 2-[(1S)-1-Cyclopropylethyl]-6-(4-methyl-2-{[6-(2-oxopyrrolidin-1-yl)pyridin-2-yl]amino}-1,3-thiazol-5-yl)-N-(oxetan-3-yl)-3-oxo-2,3-dihydro-1H-isoindole-4-sulfonamide], the IC50 was found to be 0.7 nM in assay [1], 1.3 nM in assay [2], 140 nM in assay [3] and 2060 nM in assay [4].

In the case of `Cc1nc(Nc2cccc(N3CCOC3=O)n2)sc1-c1cc2c(c(S(=O)(=O)NC3COC3)c1)C(=O)N([C@@H](C)C1CC1)C2` [Example 33, 2-[(1S)-1-Cyclopropylethyl]-6-(4-methyl-2-{[6-(2-oxo-1,3-oxazolidin-3-yl)pyridin-2-yl]amino}-1,3-thiazol-5-yl)-N-(oxetan-3-yl)-3-oxo-2,3-dihydro-1H-isoindole-4-sulfonamide], the IC50 in assay [1] was determined as 1.4 nM; in assay [2], 1.2 nM; in assay [3], 472 nM; in assay [4], 3420 nM.

Regarding `Cc1nc(Nc2cccc(N3CCNC3=O)n2)sc1-c1cc2c(c(S(=O)(=O)NC3COC3)c1)C(=O)N([C@@H](C)C1CC1)C2` [Example 34, 2-[(1S)-1-Cyclopropylethyl]-6-(4-methyl-2-{[6-(2-oxoimidazolidin-1-yl)pyridin-2-yl]amino}-1,3-thiazol-5-yl)-N-(oxetan-3-yl)-3-oxo-2,3-dihydro-1H-isoindole-4-sulfonamide], the IC50 in assay [1] was found to be 0.5 nM; in assay [2] it was 0.8 nM; in assay [3], 30 nM; in assay [4], 927 nM.

For the molecule `Cc1nc(Nc2cccc(N3CCCOC3=O)n2)sc1-c1cc2c(c(S(=O)(=O)NC3COC3)c1)C(=O)N([C@@H](C)C1CC1)C2` [Example 35, 2-[(1S)-1-Cyclopropylethyl]-6-(4-methyl-2-{[6-(2-oxo-1,3-oxazinan-3-yl)pyridin-2-yl]amino}-1,3-thiazol-5-yl)-N-(oxetan-3-yl)-3-oxo-2,3-dihydro-1H-isoindole-4-sulfonamide], the IC50 in assay [1] worked out at 0.9 nM; in assay [2], 1 nM; in assay [3], 53 nM; in assay [4] it was 484 nM.

Take `Cc1nc(Nc2cccc(N3CCCCC3=O)n2)sc1-c1cc2c(c(S(=O)(=O)NC3COC3)c1)C(=O)N([C@@H](C)C(F)(F)F)C2` [Example 36, 6-(4-Methyl-2-{[6-(2-oxopiperidin-1-yl)pyridin-2-yl]amino}-1,3-thiazol-5-yl)-N-(oxetan-3-yl)-3-oxo-2-[(2S)-1,1,1-trifluoropropan-2-yl]-2,3-dihydro-1H-isoindole-4-sulfonamide]: the IC50 in assay [1] was 1 nM; in assay [2] it was 1.2 nM; in assay [3], 50 nM; in assay [4] it was 113 nM.

As for `Cc1nc(Nc2cccc(N3CCCC3=O)n2)sc1-c1cc2c(c(S(=O)(=O)NC3COC3)c1)C(=O)N([C@@H](C)C(F)(F)F)C2` [Example 37, 6-(4-Methyl-2-{[6-(2-oxopyrrolidin-1-yl)pyridin-2-yl]amino}-1,3-thiazol-5-yl)-N-(oxetan-3-yl)-3-oxo-2-[(2S)-1,1,1-trifluoropropan-2-yl]-2,3-dihydro-1H-isoindole-4-sulfonamide], the IC50 amounted to 0.6 nM in assay [1], 1.1 nM in assay [2], 67 nM in assay [3] and 395 nM in assay [4].

`CNS(=O)(=O)c1cc(-c2sc(Nc3cccc(N4CCCOC4=O)n3)nc2C)cc2c1C(=O)N(C(C)(C)C)C2` [Example 38, 2-tert-Butyl-N-methyl-6-(4-methyl-2-{[6-(2-oxo-1,3-oxazinan-3-yl)pyridin-2-yl]amino}-1,3-thiazol-5-yl)-3-oxo-2,3-dihydro-1H-isoindole-4-sulfonamide]: the IC50 came out at 1.8 nM in assay [1], 0.8 nM in assay [2], 84 nM in assay [3] and 65 nM in assay [4].

For the molecule `CNS(=O)(=O)c1cc(-c2sc(Nc3cccc(N4CCOCC4=O)n3)nc2C)cc2c1C(=O)N([C@@H](C)C(C)(C)C)C2` [Example 39, 2-[(2S)-3,3-Dimethylbutan-2-yl]-N-methyl-6-(4-methyl-2-{[6-(3-oxomorpholin-4-yl)pyridin-2-yl]amino}-1,3-thiazol-5-yl)-3-oxo-2,3-dihydro-1H-isoindole-4-sulfonamide], the IC50 was 8.9 nM in assay [1], 1.4 nM in assay [2], 485 nM in assay [3] and 10400 nM in assay [4].

Regarding `Cc1nc(Nc2cccc(N3CCNCC3=O)n2)sc1-c1cc2c(c(S(C)(=O)=O)c1)C(=O)N([C@@H](C)C1CC1)C2` [Example 40, 2-[(1S)-1-Cyclopropylethyl]-5-(4-methyl-2-{[6-(2-oxopiperazin-1-yl)pyridin-2-yl]amino}-1,3-thiazol-5-yl)-7-(methylsulfonyl)-2,3-dihydro-1H-isoindol-1-one], the IC50 in assay [1] was 1.7 nM; in assay [2], 1.6 nM; in assay [3], 104 nM; in assay [4], 729 nM.

`CNS(=O)(=O)c1cc(-c2sc(Nc3cccc(N4CCNCC4=O)n3)nc2C)cc2c1C(=O)N([C@@H](C)C1CC1)C2` [Example 41, 2-[(1S)-1-Cyclopropylethyl]-N-methyl-6-(4-methyl-2-{[6-(2-oxopiperazin-1-yl)pyridin-2-yl]amino}-1,3-thiazol-5-yl)-3-oxo-2,3-dihydro-1H-isoindole-4-sulfonamide]: the IC50 in assay [1] amounted to 0.9 nM; in assay [2] it was 1.3 nM; in assay [3] it was 72 nM; in assay [4], 298 nM.

Turning to `CNS(=O)(=O)c1cc(-c2sc(Nc3cccc(N4C[C@H](C)NCC4=O)n3)nc2C)cc2c1C(=O)N([C@@H](C)C1CC1)C2` [Example 42, 2-[(1S)-1-Cyclopropylethyl]-N-methyl-6-[4-methyl-2-({6-[(5S)-5-methyl-2-oxopiperazin-1-yl]pyridin-2-yl}amino)-1,3-thiazol-5-yl]-3-oxo-2,3-dihydro-1H-isoindole-4-sulfonamide], the IC50 came out at 0.8 nM in assay [1], 1 nM in assay [2], 69 nM in assay [3] and 286 nM in assay [4].
